Experimental data from ChEMBL document CHEMBL3826971 (Bioorg Med Chem Lett, 2016).

Assay: Acute toxicity in ip dosed mouse measured after 72 hrs
Type: organism-based
Settings: in vivo

Question: With CN(C)C(=O)Oc1ccc[n+](C)c1.[Br-] [PYRIDOSTIGMINE BROMIDE] as the molecule, how does the LD50 at 72 h read?
Answer: 3.3 mg/kg

Question: For CN(C)C(=O)Oc1cccc([N+](C)(C)C)c1.COS(=O)(=O)[O-] [NEOSTIGMINE METHYLSULFATE], which LD50 at 72 h is on record?
Answer: 0.51 mg/kg
